Test system: OVCAR-5 complex spheroids with HUVEC/MSC, viability, % test/control
Assay: Anticancer human tumor OVCAR-5 cell line growth inhibition [AhR];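 further: spheroids exposed to compounds for 7 days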;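 on viability, T/C: 100% = DMSO vehicle control wells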
Conditions: for viability, T/C: stronger effect = lower value
Excerpt: Multicellular complex tumor spheroid response to aryl hydrocarbon receptor antagonists in combination with a variety of drugs and investigational agents in selected tumor cell lines
The current study was undertaken to assess response to aryl hydrocarbon receptor antagonists in combination with standard-of-care drugs and investigational agents in solid tumor complex spheroid models. Complex spheroids include a stromal component modeled by human endothelial cells (HUVEC) and fibroblasts modeled by human mesenchymal stem cells (MSCs). The concentration ranges selected for each drug and investigational agent were based upon clinically achievable concentrations if the clinical Cmax of the agent was known.
Compounds. The drugs and investigational agents: BAY 2416964 (NSC825713), GNF351 (NSC835774), CH-223191 (NSC835775), CPI-455 (NSC825282), aza-TdCyd (NSC777586), decitabine (NSC127716), belinostat (NSC758774), entinostat (NSC756642), pevonedistat (NSC761192), tazemetostat (NSC777109), talazoparib (NSC765396), olaparib (NSC753686), selinexor (NSC780203), nedisertib (M3814, NSC802822), bortezomib (NSC756655), venetoclax (NSC766270), doxorubicin (NSC123127), elimusertib (BAY189344, NSC800525), ceralasertib (AZD6738, NSC777638), TAK-243 (NSC785004), alisertib (NSC759677), etoposide (NSC141540), topotecan (NSC609699), eribulin (NSC707389), gemcitabine (NSC613327), carboplatin (NSC241240), cisplatin (NSC119875), and SN-38 (NSC673596) were obtained from the National Cancer Institute (NCI) Developmental Therapeutics Program Chemical Repository (32). The FDA-approved anticancer drug set is available from the Developmental Therapeutics Program at https://dtp.cancer.gov/organization/dscb/obtaining/available plates.htm. […] The stock solutions were prepared in dimethyl sulfoxide (DMSO, Sigma-Aldrich, St. Louis, MO, cat. D2650), except for the platinum compounds which were prepared in saline (Quality Biological, Gaithersburg, MD, cat. 114-055-101), at 800-fold the tested concentration and stored at -70 degrees C prior to their use. All drugs and investigational agents were tested over a range starting from a high concentration at or near the clinical Cmax and decreasing in half-log increments. If the clinical Cmax for an agent had not been determined, the highest concentration tested was 10 microM (Table 1).
Cell Culture. All cells were maintained in an incubator at 37 degrees C and 5% CO2 with 95% humidity. The PDC lines were cultured according to standard operating procedures established by the NCI PDMR (https://pdmr.cancer.gov). Briefly, all PDCs were thawed and cultured in Matrigel-coated flasks prepared with a working solution of 1X Ham's F-12 nutrient mix, without supplementation (Invitrogen, Waltham, MA, cat. 11765054), 100 U/mL penicillin-streptomycin (Invitrogen, cat. 15140122), and 2.5% Matrigel (Corning Inc., Corning, NY, cat. 354248) for the first three passages. All PDCs were cultured in complete DMEM/F-12 media containing advanced DMEM/F-12 (Invitrogen, cat. 12634028), 4.9% defined fetal bovine serum, heat inactivated (HyClone Laboratories Inc., Logan, UT, cat. SH30070.03HI), 389 ng/mL hydrocortisone (Sigma-Aldrich, cat. H4001), 9.7 ng/mL human EGF recombinant protein (Invitrogen, cat. PHG0313), 23.4 microg/mL adenine (Sigma-Aldrich, cat. A2786), 97.3 U/mL penicillin-streptomycin (Invitrogen, cat. 15140122), 1.9 mM L-glutamine (Invitrogen, cat. 25030081), and 9.7 microM Y-27632 dihydrochloride (Tocris Bioscience, Bristol, United Kingdom, cat. 1254). The PDCs were cultured in complete DMEM/F12 media without 10 microM Y-27632 dihydrochloride for at least two passages prior to the screen. The established cell lines NCI-H1341 and […] were cultured in DMEM/F-12, HEPES (Invitrogen, cat. 11330032), 5% defined fetal bovine serum (HyClone Laboratories Inc., cat. SH30070.03), ITS premix universal culture supplement [insulin (5 microg/mL), transferrin (5 microg/mL), and selenious acid (5 ng/mL)] […]

[1] = curve of first compound, second compound 0.1 µM
[2] = curve of first compound, second compound 0.316 µM
[3] = curve of first compound, second compound 1 µM
[4] = curve of first compound, second compound 3.16 µM
[5] = curve of first compound, second compound 10 µM
[6] = second compound 0.1 µM, first compound 0.0316 µM
[7] = second compound 0.1 µM, first compound 0.1 µM
[8] = second compound 0.1 µM, first compound 0.316 µM
[9] = second compound 0.1 µM, first compound 1 µM
[10] = second compound 0.1 µM, first compound 3.16 µM
[11] = second compound 0.1 µM, first compound 10 µM
[12] = second compound 0.316 µM, first compound 0.0316 µM
[13] = second compound 0.316 µM, first compound 0.1 µM
[14] = second compound 0.316 µM, first compound 0.316 µM
[15] = second compound 0.316 µM, first compound 1 µM
[16] = second compound 0.316 µM, first compound 3.16 µM
[17] = second compound 0.316 µM, first compound 10 µM
[18] = second compound 1 µM, first compound 0.0316 µM
[19] = second compound 1 µM, first compound 0.1 µM
[20] = second compound 1 µM, first compound 0.316 µM
[21] = second compound 1 µM, first compound 1 µM
[22] = second compound 1 µM, first compound 3.16 µM
[23] = second compound 1 µM, first compound 10 µM
[24] = second compound 3.16 µM, first compound 0.0316 µM
[25] = second compound 3.16 µM, first compound 0.1 µM
[26] = second compound 3.16 µM, first compound 0.316 µM
[27] = second compound 3.16 µM, first compound 1 µM
[28] = second compound 3.16 µM, first compound 3.16 µM
[29] = second compound 3.16 µM, first compound 10 µM
[30] = second compound 10 µM, first compound 0.0316 µM
[31] = second compound 10 µM, first compound 0.1 µM
[32] = second compound 10 µM, first compound 0.316 µM
[33] = second compound 10 µM, first compound 1 µM
[34] = second compound 10 µM, first compound 3.16 µM
[35] = second compound 10 µM, first compound 10 µM

Structure (SMILES)	IC50 [1]	IC50 [2]	IC50 [3]	IC50 [4]	IC50 [5]	viability, T/C [6]	viability, T/C [7]	viability, T/C [8]	viability, T/C [9]	viability, T/C [12]	viability, T/C [13]	viability, T/C [14]	viability, T/C [15]	viability, T/C [18]	viability, T/C [19]	viability, T/C [20]	viability, T/C [21]	viability, T/C [24]	viability, T/C [25]	viability, T/C [26]	further results
Cc1ccccc1N=Nc1ccc(NC(=O)c2ccnn2C)c(C)c1																					viability, T/C (compound 0.1 µM): 103% [middle of 20 runs]; viability, T/C (compound 0.316 µM): 108% [middle of 20 runs]; viability, T/C (compound 1 µM): 110% [middle of 20 runs]; viability, T/C (compound 3.16 µM): 113% [middle of 20 runs]; viability, T/C (compound 10 µM): 105% [middle of 20 runs]; IC50 (compound alone, run of 08/22/2022): > 10 µM
COc1cc(C2c3cc4c(cc3C(OC3OC5COC(C)OC5C(O)C3O)C3COC(=O)C23)OCO4)cc(OC)c1O (stereo unspecified) + CC(CO)NC(=O)c1cc(-c2ccc(Cl)cc2)nn(-c2cnn(C)c2)c1=O	3.96 µM	3.88 µM	5.44 µM	3.92 µM	3.1 µM	106%	106%	100%	82.8%	105%	109%	101%	86%	115%	112%	107%	84.9%	98.9%	102%	98%	viability, T/C [10]: 52.7%; viability, T/C [11]: 38.1%; viability, T/C [16]: 52.7%; viability, T/C [17]: 36.6%; viability, T/C [22]: 59.2%; viability, T/C [23]: 40.3%; viability, T/C [27]: 71.4%; viability, T/C [28]: 56.2%; viability, T/C [29]: 37.4%; viability, T/C [30]: 96.1%; viability, T/C [31]: 97.1%; viability, T/C [32]: 82.6%; viability, T/C [33]: 63.5%; viability, T/C [34]: 52.7%; viability, T/C [35]: 40.1%
COc1cccc2c1C(=O)c1c(O)c3c(c(O)c1C2=O)CC(O)(C(=O)CO)CC3OC1CC(N)C(O)C(C)O1 (stereo unspecified) + CC(CO)NC(=O)c1cc(-c2ccc(Cl)cc2)nn(-c2cnn(C)c2)c1=O	0.267 µM	0.285 µM	0.347 µM	0.351 µM	0.326 µM	79.8%	62.8%	50%	23.5%	80%	63.9%	50.9%	23.3%	82.5%	71.5%	53.1%	23.8%	77%	70.1%	52.7%	viability, T/C [10]: 3.18%; viability, T/C [11]: 0.94%; viability, T/C [16]: 2.8%; viability, T/C [17]: 0.91%; viability, T/C [22]: 2.66%; viability, T/C [23]: 0.86%; viability, T/C [27]: 22.9%; viability, T/C [28]: 1.63%; viability, T/C [29]: 1.01%; viability, T/C [30]: 72.7%; viability, T/C [31]: 76.2%; viability, T/C [32]: 49.5%; viability, T/C [33]: 15%; viability, T/C [34]: 0.79%; viability, T/C [35]: 1.12%
Nc1ncn(C2CC(O)C(CO)O2)c(=O)n1 (stereo unspecified) + CC(CO)NC(=O)c1cc(-c2ccc(Cl)cc2)nn(-c2cnn(C)c2)c1=O	> 1 µM	> 1 µM	> 1 µM	> 1 µM	> 1 µM	98%	88.5%	72.6%	62.4%	99%	83.2%	70.8%	62%	109%	91.6%	71.3%	66.4%	97.9%	83.7%	70.6%	viability, T/C (second compound 0.1 µM, first compound 0.00316 µM): 107%; viability, T/C (second compound 0.1 µM, first compound 0.01 µM): 106%; viability, T/C (second compound 0.316 µM, first compound 0.00316 µM): 107%; viability, T/C (second compound 0.316 µM, first compound 0.01 µM): 107%; viability, T/C (second compound 1 µM, first compound 0.00316 µM): 116%; viability, T/C (second compound 1 µM, first compound 0.01 µM): 114%; viability, T/C (second compound 3.16 µM, first compound 0.00316 µM): 105%; viability, T/C (second compound 3.16 µM, first compound 0.01 µM): 99.4%; viability, T/C [27]: 59.2%; viability, T/C (second compound 10 µM, first compound 0.00316 µM): 97.6%; viability, T/C (second compound 10 µM, first compound 0.01 µM): 99.9%; viability, T/C [30]: 97.4%; viability, T/C [31]: 88.4%; viability, T/C [32]: 72.9%; viability, T/C [33]: 64.2%

From PubChem BioAssay AID1919015 (Molecular Pharmacology Branch, DTP, NCI, 2023)
